Tested on: N. meningitidis 2C4.3 PilT mutant type IV pili
Assay: Surface expression of type IV pili by transmission electron microscopy, PilT mutant
Format: cell-based, Neisseria meningitidis
Conditions: 50 μM
Description: N. meningitidis 2C4.3 wild type strain and the isogenic derivative mutant PilT ([…]PiIT) were grown in liquid culture at 10^7 CFU/ml for 2 h to form bacterial aggregates and then treated with 50 μM Trifluoperazine for 15 minutes before analysis by transmission electron microscopy. Arrows point at bundles of type IV pili expressed at the bacterial surface.
N. meninigitidis 2C4.3 strain and the isogenic derivative mutant PilT, where the pilT gene was interrupted by an erythromycin-resistance cassette (Pujol et al., 1999), were grown in suspension in DMEM medium supplemented with 10% heat-inactivated fetal calf serum. PilT belongs to a highly conserved protein family homologous to AAA-type motor proteins and is proposed to cause the retraction of type IV pili by disassembling the pilin subunits at the base of the fiber (Morand et al., 2004). After 2 h of growth, Trifluoperazine (or control vehicle) was added at 50 μM for 20 min. The effect on bacterial aggregates were visualized over time using a phase-contrast microscope or the bacterial suspensions were fixed in 4% Paraformaldehyde for 10 min, centrifuged at 1000 rpm for 5 minutes and the bacterial pellets washed in PBS. After negative staining with 1% phosphotungstic acid, bacteria were analysed by transmission electron microscopy, using a JEOL 1011 microscope.

`CN1CCN(CCCN2c3ccccc3Sc3ccc(C(F)(F)F)cc32)CC1` [Trifluoperazine] was tested, and the “surface expression of type IV pili of PilT mutant” value was “did not affect”.

Reference: patent US20200222418A1, “USE OF PHENOTHIAZINE DERIVATIVE IN THE TREATMENT OF INFECTION CAUSED BY BACTERIA CARRYING TYPE IV PILI” (priority 2017, published 2020)
